Data as given in patent US20190031618A1, “BENZIMIDAZOLE DERIVATIVES USEFUL AS CB-1 INVERSE AGONISTS” (Janssen Pharmaceutica NV, priority 2015, published 2019).
pEC50: −log10 of the molar value.

Legend:
[1] = target: Human CB2R (Cannabinoid receptor 2) (Homo sapiens, UniProt P34972); test: CB-2 in vitro cAMP (HTRF) assay; type: cell-based; conditions: HEK cells, cAMP HTRF, 250 nM forskolin; mean where tested more than once; read-out: CB2 HEK_cAMP EC50
Method in brief: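 Competitive HTRF read-out (d2-labelled cAMP vs cryptate antibody) quantifies cAMP in stably transfected HEK-293 cells, seeded the day before at 4E5 cells/mL. Stimulation buffer: HBSS, 5 mM HEPES, 0.1% BSA, 0.5 mM IBMX; forskolin prepared at 1.5 μM in buffer; compounds serially diluted 1/3 in DMSO.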

[2] = target: Human CB1R (Cannabinoid receptor 1) (Homo sapiens, UniProt P21554); test: CB-1 in vitro cAMP (HTRF) assay; type: cell-based; conditions: HEK cells, cAMP HTRF, 250 nM forskolin; mean where tested more than once; read-out: CB1 HEK_cAMP EC50
Method in brief: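 Intracellular cAMP from HTRF ratio (d2-cAMP vs Eu-cryptate anti-cAMP), converted to nM via per-plate standards, in stable human CB1R HEK-293 cells.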

Human CB1R (Cannabinoid receptor 1), sequence (P21554 whole entry): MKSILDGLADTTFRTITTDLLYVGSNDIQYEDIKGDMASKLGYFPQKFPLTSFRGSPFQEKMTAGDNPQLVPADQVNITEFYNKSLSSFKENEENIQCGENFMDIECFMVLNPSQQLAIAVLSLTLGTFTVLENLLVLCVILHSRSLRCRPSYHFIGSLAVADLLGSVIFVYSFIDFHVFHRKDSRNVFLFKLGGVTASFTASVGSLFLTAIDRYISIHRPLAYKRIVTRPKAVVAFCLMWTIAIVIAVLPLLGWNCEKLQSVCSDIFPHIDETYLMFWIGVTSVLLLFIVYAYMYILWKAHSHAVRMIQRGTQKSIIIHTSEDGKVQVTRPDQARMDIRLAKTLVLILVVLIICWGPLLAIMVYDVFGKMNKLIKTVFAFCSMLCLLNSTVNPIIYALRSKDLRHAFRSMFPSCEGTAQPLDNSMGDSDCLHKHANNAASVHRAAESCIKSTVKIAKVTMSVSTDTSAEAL
Human CB2R (Cannabinoid receptor 2), sequence (P34972 whole entry): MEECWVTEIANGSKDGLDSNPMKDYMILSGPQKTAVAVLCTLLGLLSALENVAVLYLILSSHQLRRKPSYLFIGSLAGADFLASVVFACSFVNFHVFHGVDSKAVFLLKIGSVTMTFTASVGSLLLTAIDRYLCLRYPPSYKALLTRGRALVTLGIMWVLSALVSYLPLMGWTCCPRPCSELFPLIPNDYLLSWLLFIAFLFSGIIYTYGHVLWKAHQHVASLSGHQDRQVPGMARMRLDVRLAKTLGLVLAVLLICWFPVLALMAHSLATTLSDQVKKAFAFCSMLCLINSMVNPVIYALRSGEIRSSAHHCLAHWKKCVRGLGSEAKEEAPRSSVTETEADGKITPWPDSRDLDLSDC

| pEC50 [1] | pEC50 [2] | SMILES |
| --- | --- | --- |
| < 5.00 | 8.04 | NC(=O)c1cc(S(=O)(=O)N2CCC(n3c(C4CC4)nc4ccc(C(c5ccc(Cl)cc5)c5ccc(Cl)cc5)cc43)CC2)ccc1F [Example 217] |
| < 5.00 | 7.53 | NC(=O)c1ccc(S(=O)(=O)N2CCC(n3c(C4CC4)nc4ccc(C(c5ccc(Cl)cc5)c5ccc(Cl)cc5)cc43)CC2)cc1F [Example 189] |
| < 5.00 | 6.15 | O=C(O)c1ccc(C(=O)N2CCC(n3c(C4CC4)nc4ccc(C(c5ccc(Cl)cc5)c5ccc(Cl)cc5)cc43)CC2)cn1 [Example 231] |
| 5.33 | 7.83 | CCOC(=O)N1CCC(n2c(CC)nc3ccc(C(c4ccc(Cl)cc4)c4ccc(Cl)cc4)cc32)CC1 [Example 332] |
| < 5.00 | < 5.00 | CC(C)(C)c1csc(C(c2ccc(Cl)cc2)c2ccc3ncn(Cc4ccc(Cl)cc4)c3c2)n1 (centres unmarked) [Example 449] |
| < 5.00 | 7.76 | O=S(=O)(N1CCC(n2c(C3CC3)nc3ccc(C(O)(c4ccc(Cl)cc4)c4ccc(Cl)cc4)cc32)CC1)C(F)(F)F [Example 303] |
| < 5.00 | 5.70 | Cc1nc2ccc(C(c3ccc(Cl)cc3)c3nccs3)cc2n1C1Cc2ccccc2C1 (centres unmarked) [Example 361] |
| < 5.00 | 5.97 | CCOC(=O)N1CCC(n2c(-c3ccc(Cl)cc3)nc3ccc(C(c4ccc(Cl)cc4)c4nccs4)cc32)CC1 (centres unmarked) [Example 418] |
| < 5.00 | 5.36 | O=C(O)[C@H]1CC[C@H](n2c(C3CC3)nc3ccc(C(c4ccc(Cl)cc4)c4ccc(Cl)cc4)cc32)CC1 [Example 134] |
| < 5.00 | 5.78 | O=C(O)c1ccc(-c2ccc(CCn3c(C4CC4)nc4ccc(C(c5ccc(Cl)cc5)c5ccc(Cl)cc5)cc43)cc2)cc1 [Example 25] |
| < 5.00 | 7.77 | COC(=O)C(c1ccc(Cl)cc1)(c1ccc(Cl)cc1)c1ccc2nc(C3CC3)n(CC3CCN(S(=O)(=O)C(F)(F)F)CC3)c2c1 [Example 14] |
| < 5.00 | < 5.00 | O=C(O)COc1ccc(-n2c(C3CC3)nc3ccc(C(c4ccc(Cl)cc4)c4ccc(Cl)cc4)cc32)cc1 [Example 165] |
| < 5.00 | 8.15 | O=C(O)C(c1ccc(Cl)cc1)(c1ccc(Cl)cc1)c1ccc2nc(C3CC3)n(C3CCN(S(=O)(=O)C(F)(F)F)CC3)c2c1 [Example 267] |
| 5.09 | 7.48 | O=C(OC[C@@H](O)[C@H](O)CO)N1CCC(n2c(C3CC3)nc3ccc(C(c4ccc(Cl)cc4)c4ccc(Cl)cc4)cc32)CC1 [Example 102] |
| < 5.00 | 7.49 | COC(=O)CCNC(=O)c1cccc(S(=O)(=O)N2CCC(n3c(C4CC4)nc4ccc(C(c5ccc(Cl)cc5)c5ccc(Cl)cc5)cc43)CC2)c1 [Example 203] |
| < 5.00 | 6.50 | CCOC(=O)c1nc2ccc(C(c3ccc(Cl)cc3)c3nccs3)cc2n1C1CCN(C(=O)OCC)CC1 (centres unmarked) [Example 413] |
| < 5.00 | 7.18 | Nc1ccc(S(=O)(=O)N2CCC(n3c(C4CC4)nc4ccc(C(c5ccc(Cl)cc5)c5ccc(Cl)cc5)cc43)CC2)cc1 [Example 151] |
| < 5.00 | 6.01 | O=C(O)c1ccc(C(O)(c2ccc(Cl)cc2)c2ccc3nc(C4CC4)n(C4CCN(S(=O)(=O)C(F)(F)F)CC4)c3c2)cc1 (centres unmarked) [Example 150] |
| < 5.00 | 7.01 | C=C(CO)c1nc2ccc(C(c3ccc(Cl)cc3)c3ccc(Cl)cc3)cc2n1C1CCN(S(=O)(=O)C(F)(F)F)CC1 [Example 118] |
| < 4.68 | 7.72 | O=C(Oc1ccccc1)N1CCC(n2c(C3CC3)nc3ccc(C(c4ccc(Cl)cc4)c4ccc(Cl)cc4)cc32)CC1 [Example 61] |
| 5.69 | 8.17 | C#CCN1CCC(n2c(C3CC3)nc3ccc(C(c4ccc(Cl)cc4)c4ccc(Cl)cc4)cc32)CC1 [Example 76] |
| 5.41 | 7.55 | O=C(O)c1ccc(-c2cccc(CCn3c(C4CC4)nc4ccc(C(c5ccc(Cl)cc5)c5ccc(Cl)cc5)cc43)c2)s1 [Example 6] |
| 5.31 | 7.56 | O=C(OC1CCCC1)N1CCC(n2c(C3CC3)nc3ccc(C(c4ccc(Cl)cc4)c4ccc(Cl)cc4)cc32)CC1 [Example 71] |

| pEC50 [1] | pEC50 [2] | SMILES |
| --- | --- | --- |
| 5.84 | 8.14 | Cc1cc(C(=O)O)sc1S(=O)(=O)N1CCC(n2c(C3CC3)nc3ccc(C(c4ccc(Cl)cc4)c4ccc(Cl)cc4)cc32)CC1 [Example 218] |
| < 5.00 | 7.03 | O=C(NCCO)c1ccc(S(=O)(=O)N2CCC(n3c(C4CC4)nc4ccc(C(c5ccc(Cl)cc5)c5ccc(Cl)cc5)cc43)CC2)cn1 [Example 204] |
| 5.90 | 7.44 | NC(=O)c1ccc(C(=O)N2CCC(n3c(C4CC4)nc4ccc(C(c5ccc(Cl)cc5)c5ccc(Cl)cc5)cc43)CC2)cc1 [Example 254] |
| 5.04 | 7.49 | NC(=O)[C@H]1CC[C@@H](n2c(C3CC3)nc3ccc(C(c4ccc(Cl)cc4)c4ccc(Cl)cc4)cc32)CC1 [Example 136] |
| < 5.00 | 8.72 | NC(=O)c1ccc(S(=O)(=O)N2CCC(n3c(C4CC4)nc4ccc(C(c5ccc(Cl)cc5)c5ccc(Cl)cc5)cc43)CC2)cn1 [Example 238] |
| < 5.00 | 7.60 | COc1cccc(-n2c(C3CC3)nc3ccc(C(c4ccc(Cl)cc4)c4ccc(Cl)cc4)cc32)c1 [Example 181] |
| < 5.00 | 8.14 | O=S(=O)(N1CCC(n2c(C3COC3)nc3ccc(C(O)(c4ccc(Cl)cc4)c4ccc(Cl)cc4)cc32)CC1)C(F)(F)F [Example 255] |
| 5.17 | 7.43 | COC(=O)c1ccc(OCCn2c(C3CC3)nc3ccc(C(c4ccc(Cl)cc4)c4ccc(Cl)cc4)cc32)nc1 [Example 34] |
| 5.20 | 7.50 | Oc1ccc(Cn2c(C3CC3)nc3ccc(C(c4ccc(Cl)cc4)c4ccc(Cl)cc4)cc32)cc1 [Example 183] |
| 5.36 | 5.48 | O=C(O)c1ccc(OCCn2c(C3CC3)nc3ccc(C(c4ccc(Cl)cc4)c4ccc(Cl)cc4)cc32)cc1 [Example 35] |
| 5.46 | 6.09 | NC(=O)c1ccc(Cn2c(C3CC3)nc3ccc(C(c4ccc(Cl)cc4)c4ccc(Cl)cc4)cc32)cc1 [Example 133] |
| < 5.00 | 8.77 | COc1ccc(-n2c(C3CC3)nc3ccc(C(c4ccc(Cl)cc4)c4ccc(Cl)cc4)cc32)cc1 [Example 179] |
| < 5.00 | 7.27 | NC(=O)[C@H]1CC[C@H](n2c(C3CC3)nc3ccc(C(c4ccc(Cl)cc4)c4ccc(Cl)cc4)cc32)CC1 [Example 135] |
| 5.63 | 8.59 | COC(=O)CN1CCC(n2c(C3CC3)nc3ccc(C(c4ccc(Cl)cc4)c4ccc(Cl)cc4)cc32)CC1 [Example 64] |
| 5.99 | 6.24 | CC(C(O)c1ccccc1)n1c(C2CC2)nc2ccc(C(c3ccc(Cl)cc3)c3ccc(Cl)cc3)cc21 (centres unmarked) [Example 299] |
| 5.23 | 5.86 | O=S(=O)(c1ccc(O)c(F)c1)N1CCC(n2c(C3CC3)nc3ccc(C(c4ccc(Cl)cc4)c4ccc(Cl)cc4)cc32)CC1 [Example 220] |
| 5.34 | 8.62 | COc1cc(C(c2ccc(Cl)cc2)c2ccc(Cl)cc2)cc2c1nc(C1CC1)n2C1CCN(S(=O)(=O)C(F)(F)F)CC1 [Example 287] |
| < 5.00 | 6.55 | O=S(=O)(N1CCC(n2c(C3CC3)nc3ccc(C(CO)(c4ccc(Cl)cc4)c4ccc(Cl)cc4)cc32)CC1)C(F)(F)F [Example 245] |
| 5.92 | 8.07 | O=C(OCc1ccccc1)N1CCC(n2c(C3CC3)nc3ccc(C(c4ccc(Cl)cc4)c4ccc(Cl)cc4)cc32)CC1 [Example 69] |
| 5.10 | 7.35 | NC(=O)COc1ccc(-n2c(C3CC3)nc3ccc(C(c4ccc(Cl)cc4)c4ccc(Cl)cc4)cc32)cc1 [Example 169] |
| < 5.00 | 5.43 | NC(=O)c1ccc(S(=O)(=O)N2CCC(n3c(C4CC4)nc4ccc(C(CO)(c5ccc(Cl)cc5)c5ccc(Cl)cc5)cc43)CC2)cc1Cl [Example 212] |
| 5.82 | 7.31 | CCc1nc2ccc(C(c3ccc(Cl)cc3)c3ccc(Cl)cc3)cc2n1CC(C)c1ccccc1 (single isomer, unassigned) [Example 312] |
| < 5.00 | 5.65 | CC(C)(C)c1nc2ccc(C(c3ccc(Cl)cc3)c3ccc(Cl)cc3)cc2n1C1CCN(S(=O)(=O)C(F)(F)F)CC1 [Example 291] |

| SMILES | pEC50 [1] | pEC50 [2] |
| --- | --- | --- |
| O=C(O)c1cncc(CN2CCC(n3c(C4CC4)nc4ccc(C(c5ccc(Cl)cc5)c5ccc(Cl)cc5)cc43)CC2)c1 [Example 123] | 5.12 | 7.87 |
| Oc1cccc(CN2CCC(n3c(C4CC4)nc4ccc(C(c5ccc(Cl)cc5)c5ccc(Cl)cc5)cc43)CC2)c1 [Example 90] | < 5.00 | 7.65 |
| CC(c1cccc(C(=O)O)c1)N1CCC(n2c(C3CC3)nc3ccc(C(c4ccc(Cl)cc4)c4ccc(Cl)cc4)cc32)CC1 (single isomer, unassigned) [Example 48] | 5.42 | 8.52 |
| NC(=O)c1ccc(CN2CCC(n3c(C4CC4)nc4ccc(C(c5ccc(Cl)cc5)c5ccc(Cl)cc5)cc43)CC2)cc1 [Example 138] | 5.41 | 7.86 |
| FC(F)(F)c1ccccc1CN1CCC(n2c(C3CC3)nc3ccc(C(c4ccc(Cl)cc4)c4ccc(Cl)cc4)cc32)CC1 [Example 84] | < 5.00 | 7.17 |
| O=C(O)c1cc(CN2CCC(n3c(C4CC4)nc4ccc(C(c5ccc(Cl)cc5)c5ccc(Cl)cc5)cc43)CC2)ccn1 [Example 83] | 4.95 | 7.37 |
